{"source": "patent US4960900A", "about": "“Oxyimino derivatives of thiazole, method of preparation and use in therapy” (priority 1987, dated 1990)", "key": {"[1]": {"assay": "in vivo", "details": "mouse, in vivo, po; for LD50 at 336 h: male mice; for selectivity ratio: LD50 per os/ED50 per os", "experimental": "(§1) The toxicity of the products to be studied was investigated by the oral administration, using an esophageal tube, of each of the said products to male mice with a body weight of 18 to 22 g, divided into groups each containing 10 to 20 animals. The mortality was recorded over a 14-day period.\n(§2) The results obtained, which are expressed in the form of LD50 in mg/kg, are collated in Table II below."}, "[2]": {"system": "male mice", "assay": "in vivo", "details": "for LD50: Table II, oral, male mice, 14 days", "experimental": "as §1, §2"}, "[3]": {"system": "convulsions induced by pentetrazole (PTZ)", "assay": "Anticonvulsant properties: convulsions induced by pentetrazole (PTZ), oral, mice", "assay_type": "in vivo", "details": "per os, male mice, 30 min after administration, pentetrazole 125 mg/kg i.p.; for ED50: Mus musculus, po, 0.5 h, read-out: ED50 in respect of convulsions induced by PTZ", "excerpt": "(§7) The anticonvulsant properties were investigated on male mice, thirty minutes after the oral administration of the substances to be studied, by the induction of convulsive seizures."}, "[4]": {"system": "convulsions induced by supramaximal electroshock (MCE)", "assay": "Anticonvulsant properties: convulsions induced by supramaximal electroshock (MCE), oral, mice", "assay_type": "in vivo", "details": "per os, male mice, 30 min after administration; for ED50: Mus musculus, po, 0.5 h, read-out: ED50 in respect of convulsions induced by MCE", "description": "as §7\nThese seizures are caused either by the intraperitoneal injection of pentetrazole (125 mg/kg) or by electrical stimulation of the cornea (supra-maximal electroshock, abbreviated to MCE).\nMCE: supramaximal electroshock;\n*: ED50 in mg/kg, determined per os on groups each containing ten"}, "[5]": {"assay": "in vivo", "assay_type": "in vivo", "details": "mouse, in vivo, po; for selectivity ratio: TD50 per os/ED50 per os", "experimental": "(§3) The neurotoxic properties were assessed on male mice by the so-called \"Rota-rod\" test carried out thirty minutes after the oral administration of the substances to be studied. The animals (divided into groups each containing ten male mice per dose and per product) are installed on the rod and their fall is observed over the next two minutes.\n(§4) The results obtained are expressed in the form of the 50% neurotoxic dose (TD50) per os, which is the dose causing 50% of the animals to fall.\n(§5) Protection index: TD50 per os/ED50 per os\n(§6) *dose determined per os on groups each containing ten male mice."}, "[6]": {"system": "male mice", "assay": "in vivo", "assay_type": "in vivo", "details": "versus sodium valproate and trimethadione", "experimental": "as §3, §4, §5, §6"}, "[7]": {"details": "PTZ, read-out: Protection index PTZ"}, "[8]": {"details": "MCE, read-out: Protection index MCE"}}, "note": "Like-named read-outs stand apart in the source and are kept apart here.", "data": [{"smiles": "CC(=NOCc1cccc(C(F)(F)F)c1)c1scnc1C", "note": "[Ex. 16]", "values": [{"measurement": "LD50 at 336 h", "setting": "[1]; LD50, Table II, 14 days", "value": "> 1000", "unit": "mg/kg"}, {"measurement": "LD50 at 336 h", "setting": "[1]; LD50, Table IV, per os", "value": "> 1000", "unit": "mg/kg"}, {"measurement": "selectivity ratio", "setting": "[1]; Therapeutic index PTZ, PTZ", "value": "> 10.4"}, {"measurement": "therapeutic indices compared with the reference products", "setting": "[2]; versus sodium valproate and trimethadione", "value": "better than those of the reference products"}, {"measurement": "ED50", "setting": "[3]", "value": 96, "unit": "mg/kg"}, {"measurement": "ED50", "setting": "[4]", "value": "> 200", "unit": "mg/kg"}, {"measurement": "selectivity ratio", "setting": "[5]; [7]", "value": 15.6}, {"measurement": "TD50 at 0.5 h", "setting": "[5]; Rota-rod, per os, male mice, 30 min after administration, read-out: TD50", "value": 1500, "unit": "mg/kg"}, {"measurement": "protection indices compared with the reference products", "setting": "[6]", "value": "better than those of the reference products"}]}, {"smiles": "CCOc1ccccc1CON=C(C)c1scnc1C", "note": "[Ex. 17]", "values": [{"measurement": "LD50 at 336 h", "setting": "[1]; LD50, Table II, 14 days", "value": "> 1000", "unit": "mg/kg"}, {"measurement": "ED50", "setting": "[3]", "value": "> 200", "unit": "mg/kg"}, {"measurement": "ED50", "setting": "[4]", "value": "> 200", "unit": "mg/kg"}]}, {"smiles": "COC(=O)CON=C(C)c1scnc1C", "note": "[Ex. 18]", "values": [{"measurement": "LD50 at 336 h", "setting": "[1]; LD50, Table II, 14 days", "value": "> 1000", "unit": "mg/kg"}, {"measurement": "ED50", "setting": "[3]", "value": "> 200", "unit": "mg/kg"}, {"measurement": "ED50", "setting": "[4]", "value": "> 200", "unit": "mg/kg"}]}, {"smiles": "CC(=NOCC(=O)O)c1scnc1C", "note": "[Ex. 19]", "values": [{"measurement": "LD50 at 336 h", "setting": "[1]; LD50, Table II, 14 days", "value": "> 1000", "unit": "mg/kg"}, {"measurement": "ED50", "setting": "[3]", "value": "> 200", "unit": "mg/kg"}, {"measurement": "ED50", "setting": "[4]", "value": "> 200", "unit": "mg/kg"}]}, {"smiles": "CC(=NOCCN(C)C)c1scnc1C", "note": "[Ex. 20]", "values": [{"measurement": "LD50 at 336 h", "setting": "[1]; LD50, Table II, 14 days", "value": "> 1000", "unit": "mg/kg"}, {"measurement": "ED50", "setting": "[3]", "value": "> 200", "unit": "mg/kg"}, {"measurement": "ED50", "setting": "[4]", "value": "> 200", "unit": "mg/kg"}]}, {"smiles": "CC(=NOCCN1CCCC1)c1scnc1C", "note": "[Ex. 21]", "values": [{"measurement": "LD50 at 336 h", "setting": "[1]; LD50, Table II, 14 days", "value": 360, "unit": "mg/kg"}, {"measurement": "ED50", "setting": "[3]", "value": "> 200", "unit": "mg/kg"}, {"measurement": "ED50", "setting": "[4]", "value": "> 200", "unit": "mg/kg"}]}, {"smiles": "CC(=NO)c1sc(Cl)nc1C", "note": "[Ex. 22]", "values": [{"measurement": "LD50 at 336 h", "setting": "[1]; LD50, Table II, 14 days", "value": "> 1000", "unit": "mg/kg"}, {"measurement": "ED50", "setting": "[3]", "value": "> 200", "unit": "mg/kg"}, {"measurement": "ED50", "setting": "[4]", "value": "> 200", "unit": "mg/kg"}]}, {"smiles": "CC(=NO)c1sc(Br)nc1C", "note": "[Ex. 23]", "values": [{"measurement": "LD50 at 336 h", "setting": "[1]; LD50, Table II, 14 days", "value": "> 1000", "unit": "mg/kg"}, {"measurement": "ED50", "setting": "[3]", "value": "> 200", "unit": "mg/kg"}, {"measurement": "ED50", "setting": "[4]", "value": "> 200", "unit": "mg/kg"}]}, {"smiles": "CON=C(C)c1sc(Cl)nc1C", "note": "[Ex. 24]", "values": [{"measurement": "LD50 at 336 h", "setting": "[1]; LD50, Table II, 14 days", "value": "> 1000", "unit": "mg/kg"}, {"measurement": "ED50", "setting": "[3]", "value": "> 200", "unit": "mg/kg"}, {"measurement": "ED50", "setting": "[4]", "value": "> 200", "unit": "mg/kg"}]}, {"smiles": "CON=C(C)c1sc(Br)nc1C", "note": "[Ex. 25]", "values": [{"measurement": "LD50 at 336 h", "setting": "[1]; LD50, Table II, 14 days", "value": "> 1000", "unit": "mg/kg"}, {"measurement": "ED50", "setting": "[3]", "value": "> 200", "unit": "mg/kg"}, {"measurement": "ED50", "setting": "[4]", "value": "> 200", "unit": "mg/kg"}]}, {"smiles": "CON=C(C)c1sc(C)nc1C", "note": "[Ex. 26]", "values": [{"measurement": "LD50 at 336 h", "setting": "[1]; LD50, Table II, 14 days", "value": "> 1000", "unit": "mg/kg"}, {"measurement": "ED50", "setting": "[3]", "value": "> 200", "unit": "mg/kg"}, {"measurement": "ED50", "setting": "[4]", "value": "> 200", "unit": "mg/kg"}]}, {"smiles": "CON=C(C)c1sc(C)nc1C", "note": "[Ex. 27]", "values": [{"measurement": "LD50", "setting": "[2]; 20160 min", "value": 1000, "unit": "mg/kg"}, {"measurement": "ED50 in respect of convulsions induced by PTZ", "setting": "[3]", "value": "> 200", "unit": "mg/kg"}, {"measurement": "ED50 in respect of convulsions induced by MCE", "setting": "[4]", "value": "> 200", "unit": "mg/kg"}]}, {"smiles": "CC(=NO)c1scnc1C", "note": "[Ex. 28, 5-(1-hydroxyiminoethyl)-4-methylthiazole]", "values": [{"measurement": "LD50 at 336 h", "setting": "[1]; LD50, Table II, 14 days", "value": 1000, "unit": "mg/kg"}, {"measurement": "ED50", "setting": "[3]", "value": 126, "unit": "mg/kg"}, {"measurement": "ED50", "setting": "[4]", "value": "> 200", "unit": "mg/kg"}]}, {"smiles": "CC(=NO)c1scnc1C", "note": "[Ex. 29]", "values": [{"measurement": "LD50", "setting": "[2]", "value": 1000, "unit": "mg/kg"}, {"measurement": "ED50 in respect of convulsions induced by PTZ", "setting": "[3]; 30 min", "value": 200, "unit": "mg/kg"}, {"measurement": "ED50 in respect of convulsions induced by MCE", "setting": "[4]", "value": "> 200", "unit": "mg/kg"}]}, {"smiles": "CN1C(=O)OC(C)(C)C1=O", "note": "[TRIM, trimethadione, reference compound]", "values": [{"measurement": "selectivity ratio", "setting": "[1]; Therapeutic index MCE, MCE", "value": 4.4}, {"measurement": "selectivity ratio", "setting": "[1]; Therapeutic index PTZ, PTZ", "value": 8.7}, {"measurement": "ED50", "setting": "[4]", "value": 500, "unit": "mg/kg"}, {"measurement": "selectivity ratio", "setting": "[5]; [8]", "value": 2}, {"measurement": "selectivity ratio", "setting": "[5]; [7]", "value": 4}]}, {"smiles": "CCCC(CCC)C(=O)O", "note": "[VALP, sodium valproate, reference compound]", "values": [{"measurement": "selectivity ratio", "setting": "[1]; Therapeutic index MCE, MCE", "value": 4}, {"measurement": "selectivity ratio", "setting": "[1]; Therapeutic index PTZ, PTZ", "value": 4}, {"measurement": "selectivity ratio", "setting": "[5]; [8]", "value": 2.8}, {"measurement": "selectivity ratio", "setting": "[5]; [7]", "value": 2.7}]}]}
